Measured values as given in patent publication US20110105389A1 (priority 2009, published 2011).
Where two headings read alike, the source gives them in different places.

Legend:
[1] = target: T1, ghrelin receptor (HEK-GHSR1 stable cells) (Homo sapiens, UniProt Q92847); assay: Ghrelin receptor inverse agonist assay (HTRF IP-one), Method B4; assay type: cell-based; details: inverse agonist at the ghrelin receptor, Method B4
T1 construct: expressed in transfected cells
Source text: B4. Ghrelin Receptor Inverse Agonist Assay […]
In addition, the following method can be utilized to assay for inverse agonist activity. (Thomsen, W.; et al. Curr. Opin. Biotechnol. 2005, 16, 655-665; Tozawa-Takahashi F; et al., 11th SBS Annual Conference. September 2005, Geneva; Trinquet, E.; Fink, M.; Bazin, H.; et al. Anal. Biochem. 2006, 358, 126-135; Bergsdorf, C.; Kropp-Goerkis, C.; Kaehler, I.; Ketscher, L.; Boerner, U.; Parczyk, K.; Bader, B. Assay Drug Dev. Technol. 2008, 6, 39-53.)
• 1. Remove culture medium from the plate by inversion. • 2. Add 70 μl of compound/well. • 3. Incubate 30 min at 37° C. • 4. Stop the reaction by adding 15 μl of lysis buffer/well. • 5. Add 15 μl of d2/well. • 6. Add 15 μl of Anti-IP1 cryptate/well. • 7. Incubate 1 h at room temp on an orbital shaker at 100 RPM. • 8. Read the fluorescence in a plate reader (Tecan GeniosPro or similar)
The above sequence was performed using the HTRF IP-one kit (CisBio cat#62P1APEC). For the simultaneous assay of multiple test compounds, 96-well plates can be utilized in this assay (white plate with flat-bottom well, Falcon #353296). These were seeded overnight with 100 000 of HEK-GHSR1 stable cells/well. • Wells A1 and A2 of each plate are used as negative control (wells without d2). Compounds are typically tested in replicate at the following concentrations:
Compounds are stored at 10 mM in 100% DMSO.
1st dilution 1/10 in 100% DMSO (1 mM final concentration).
2nd dilution 1/10 in H2O (0.1 mM final concentration).
Other dilutions are performed in a 96-well plate in stimulation buffer.
The results for representative compounds of the invention are provided in the Examples.

[2] = target: T2, human ghrelin receptor (GRLN, growth hormone secretagogue receptor, hGHS-R1a) (Homo sapiens, UniProt Q92847); assay: Competitive radioligand binding assay (ghrelin receptor), Method B1
T2 construct: purchased PerkinElmer BioSignal #RBHGHSM, lot#1887; host or cells: HEK-293 cells, stably transfected (membranes)
T2 sequence (Q92847 whole entry): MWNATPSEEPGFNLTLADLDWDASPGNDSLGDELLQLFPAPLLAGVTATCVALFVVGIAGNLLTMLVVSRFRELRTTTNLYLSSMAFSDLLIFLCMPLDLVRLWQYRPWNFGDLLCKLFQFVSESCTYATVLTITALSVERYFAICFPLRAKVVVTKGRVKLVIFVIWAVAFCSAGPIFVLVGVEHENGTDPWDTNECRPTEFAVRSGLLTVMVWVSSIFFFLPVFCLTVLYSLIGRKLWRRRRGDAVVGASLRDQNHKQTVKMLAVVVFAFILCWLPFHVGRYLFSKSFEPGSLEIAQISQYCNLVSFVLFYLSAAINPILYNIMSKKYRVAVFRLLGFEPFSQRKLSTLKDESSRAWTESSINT
Experimental: Multiscreen Harvest plates-GF/C (Millipore, #MAHFC1H60) • 4. […] Bottom seal (Millipore, #MATAH0P00) • 7. […] Binding Buffer: 25 mM Hepes (pH 7.4), 1 mM CaCl2, 5 mM MgCl2. 2.5 mM EDTA, 0.4% BSA
Competition experiments were performed in a 300 μl filtration assay format. • 1. 220 μL of membranes diluted in binding buffer • 2. 40 μL of compound diluted in binding buffer • 3.
Compounds were provided frozen on dry ice at a stock concentration of 10 mM diluted in 100% DMSO and stored at −80° C. until the day of testing. On the test day, compounds were allowed to thaw at rt overnight and then diluted in assay buffer according to the desired test concentrations. Under these conditions, the maximal final DMSO concentration in the assay was 0.1%.
Plates were sealed with TopSeal-A, vortexed gently and incubated at rt for 30 min. The reaction was arrested by filtering samples through Multiscreen Harvest plates (pre-soaked in 0.5% polyethyleneimine) using a Tomtec Harvester, washed 9 times with 500 μL of cold 50 mM Tris-HCl (pH 7.4, 4° C.), and then plates were air-dried in a fumehood for 30 min. A bottom seal was applied to the plates prior to the addition of 25 μL of MicroScint-0 to each well. Plates were than sealed with TopSeal-A and counted for 30 sec per well on a TopCount Microplate Scintillation and Luminescence Counter (PerkinElmer) using a count delay of 60 sec. Results were expressed as counts per minute (cpm).
Data were analyzed by GraphPad Prism (GraphPad Software, San Diego, Calif.) using a variable slope non-linear regression analysis. […] Dmax values were calculated using the following formula: […]

[3] = target: T3, GHS-R1a receptor (HEK293 cells expressing GHS-R1a receptor) (Homo sapiens, UniProt Q92847); assay: Fluorescence functional assay (ghrelin receptor), Method B2, agonist and antagonist mode; assay type: cell-based; details: functional activity as an antagonist at the ghrelin receptor, Methods B2 and B3
T3 construct: host or cells: HEK293
T3 sequence (Q92847 whole entry): as above
Experimental: • 1. ImageTrak Epi-Fluorescence system (Perkin-Elmer) • 2. MultiDrop TiterTek • 3. CO2 incubators: 5% CO2, humidified, 37° C.
• 1. Hanks' BSS without phenol red (Life Technologies) • 2. Hepes buffer • 3. Probenecid (Sigma) • 4. […] Falcon cell culture 96-well black/clear bottom plates • 6. 0.05% trypsin-EDTA • 7. Cells: HEK293 cells expressing GHS-R1a receptor (Perkin-Elmer BioSignal) were grown in DMEM (Dulbecco's Modified Eagles Medium) with 10% FBS, 1% sodium pyruvate, 1% NEAA and 400 μg/mL geneticin • 8. […] [D-Lys^3]-GHRP-6 (reference antagonist, Phoenix #031-22) • 10. Assay buffer: HBSS-20 mM Hepes containing 2.5 mM probenecid and 0.1% BSA (bovine serum albumin); pH 7.4
Stock solutions of compounds (10 mM in 100% DMSO) were provided frozen on dry ice and stored at −80° C. prior to use. […] Assay plates were then prepared by appropriate dilution in assay buffer.
Typical Final Test Concentrations (N=10) for Test Compounds (agonist):
Typical Final Test Concentrations (N=10) for Test Compounds (antagonist):
Cells were maintained in culture as indicated above. The cells were harvested at a confluency of 70-90% the day before the experiment. Growth medium was removed and the cells rinsed briefly with PBS without Ca^+2 and Mg^+2. 0.05% Trypsin was added and the plates incubated at 37° C. for 5 min to detach the cells. DMEM medium supplemented with 10% FBS was added to inactivate the trypsin and determine the cell concentration. The inoculum was adjusted to a final concentration of 200 cells/μL and dispensed at 200 μL per well into a 96-well block plate. The plates were, incubated at 37° C. overnight.
The plates were removed from the incubator and the media removed by inversion of the plates. Calcium-3 dye, 50 μL, was loaded and then incubated for 1 h at 37° C. The plate was again inverted and then 25 μL of assay buffer added. The plates were then transferred to the ImageTrak system for analysis. For agonist testing, after reading for ten (10) sec, 25 μL of 2× test compound or control was injected into the assay plate. Fluorescence was monitored for an additional 50 sec. A reading was taken every two (2) seconds for a total of 30 readings per assay point.
For antagonist testing, after reading for ten (10) sec, 12.5 μL of 3× test compound or control was injected into the assay plate and allowed to react for three (3) min.
Concentration response curves were analyzed using GraphPad Prism (GraphPad Software, San Diego, Calif.) by non-linear regression analysis (sigmoidal dose-response). EC50 values are calculated using GraphPad.
Emax values were calculated using the following formula: […]
Concentration response curves were analyzed using GraphPad Prism (GraphPad Software, San Diego, Calif.) by non-linear regression analysis (sigmoidal dose-response). IC50 values are calculated using GraphPad.
Imax values were calculated using the following formula: […]

[4] = Ghrelin receptor binding activity, Method B1

T1 sequence (Q92847 whole entry): as above

| Structure (SMILES) | IC50 [1] | IC50 [2, 4] | Ki [2, 4] | Antagonist Activity [3] | Ki [2] |
| --- | --- | --- | --- | --- | --- |
| CCC(C)C1NCCOc2ccccc2CC(C)CNC(=O)C(Cc2ccccc2)NC(=O)C(C(C)O)N(C)C1=O (mixture of isomers) [Compound 1338] | 100 to 500 nM | 10 to 100 nM | 10 to 100 nM | – | – |
| CCC(C)[C@@H]1NCCOc2ccccc2CC[C@H](C)NC(=O)[C@@H](Cc2ccccc2)NC(=O)[C@H](C(C)O)N(C)C1=O (some centres unmarked) [Compound 1302] | – | 10 to 100 nM | 1 to 10 nM | C (C = 10-100 nM) | – |
| CC(O)[C@H]1C(=O)N[C@H](Cc2ccccc2)C(=O)NC/C=C/c2ccccc2OCCN[C@@H](C2CCCCC2)C(=O)N1C (some centres unmarked) [Compound 1304] | – | – | 10 to 100 nM | C (C = 10-100 nM) | – |
| CCC(C)[C@@H]1NCCOc2ccccc2/C=C/[C@H](C)NC(=O)[C@@H](Cc2ccccc2)NC(=O)[C@H](C(C)O)N(C)C1=O (some centres unmarked) [Compound 1316] | – | 10 to 100 nM | 10 to 100 nM | D (D = 100-500 nM) | – |
| CC(O)[C@H]1C(=O)N[C@H](Cc2ccccc2)C(=O)N[C@@H](C)/C=C/c2ccccc2OCCN[C@@H](C2CC2)C(=O)N1C (some centres unmarked) [Compound 1317] | – | 10 to 100 nM | 1 to 10 nM | C (C = 10-100 nM) | – |
| CCC(C)[C@@H]1NCCOc2ccccc2/C=C/CNC(=O)[C@@H](Cc2cccs2)NC(=O)[C@H](C(C)O)N(C)C1=O (some centres unmarked) [Compound 1332] | – | 100 to 500 nM | 10 to 100 nM | D (D = 100-500 nM) | – |
| CCC(C)[C@@H]1NCCOc2cc(F)ccc2CCCNC(=O)[C@@H](Cc2ccccc2)NC(=O)[C@H](C(C)O)N(C)C1=O (some centres unmarked) [Compound 1343] | – | – | – | C (C = 10-100 nM) | 1 to 10 nM |
| CC1CCc2ccccc2OCCNC(C(C)C)C(=O)N(C)C(C(C)O)C(=O)NC(Cc2c[nH]c3ncccc23)C(=O)N1 (centres unmarked) [Compound 1408] | 10 to 50 nM | – | – | – | – |
| CC(O)[C@H]1C(=O)N[C@H](Cc2c[nH]c3ccccc23)C(=O)N[C@H](C)CCc2cc(F)ccc2OCCN[C@@H](C2CC2)C(=O)N1C (some centres unmarked) [Compound 1442] | – | – | – | C (C = 10-100 nM) | – |
| COc1cccc(C[C@H]2NC(=O)[C@H](C(C)O)N(C)C(=O)[C@H](C(C)C)NCCOc3cccc(F)c3CC[C@@H](C)NC2=O)c1 (some centres unmarked) [Compound 1446] | – | – | – | B (B = 1-10 nM) | – |
| CC(C)[C@@H]1NCCOc2cc(F)ccc2CC[C@@H](C)NC(=O)[C@@H](Cc2c[nH]c3ccccc23)NC(=O)[C@H](C(C)O)N(C)C1=O (some centres unmarked) [Compound 1455] | – | – | – | B (B = 1-10 nM) | – |
| CC(C)[C@@H]1NCCOc2cc(F)ccc2CCCNC(=O)[C@@H](Cc2cccc(Cl)c2)NC(=O)[C@H](C(C)O)N(C)C1=O (some centres unmarked) [Compound 1460] | – | – | – | B (B = 1-10 nM) | – |
| CC(C)[C@@H]1NCCOc2cc(F)ccc2CC[C@@H](C)NC(=O)[C@@H](Cc2ccc(F)cc2)NC(=O)[C@H](C(C)O)N(C)C1=O (some centres unmarked) [Compound 1464] | – | – | – | B (B = 1-10 nM) | – |
| CC(O)[C@H]1C(=O)N[C@H](Cc2ccc(Cl)cc2)C(=O)NC/C=C/c2ccccc2OCCN[C@@H](C2CCCCC2)C(=O)N1C (some centres unmarked) [Compound 1710] | 100 to 500 nM | 10 to 100 nM | – | – | – |
| CC(O)[C@H]1C(=O)N[C@H](Cc2ccc(F)cc2)C(=O)N[C@H](C)CCc2ccccc2OCCN[C@@H](C2CCCCC2)C(=O)N1C (some centres unmarked) [Compound 1743] | 100 to 500 nM | 10 to 100 nM | – | – | – |
| CC(O)[C@H]1C(=O)N[C@H](Cc2ccc(Cl)cc2)C(=O)NC/C=C/c2ccccc2OCCN[C@@H](C(C)(C)C)C(=O)N1C (some centres unmarked) [Compound 1768] | 10 to 50 nM | 10 to 100 nM | – | – | – |
| CCC(C)C1NCCOc2ccccc2C=CCNC(=O)C(Cc2ccccc2OC)NC(=O)C(C(C)O)N(C)C1=O (centres unmarked) [Compound 1795] | 100 to 500 nM | 1 to 10 nM | – | – | – |
| CC1CCc2ccccc2OCCNC(C(C)(C)C)C(=O)N(C)C(C(C)O)C(=O)NC(Cc2cccc(F)c2)C(=O)N1 (centres unmarked) [Compound 1796] | 10 to 50 nM | 1 to 10 nM | – | – | – |
| CC(O)C1C(=O)NC(Cc2ccccc2)C(=O)NCC2CCc3cccc(c3C2)OCCNC(C2CCCCC2)C(=O)N1C (centres unmarked) [Compound 1797] | 100 to 500 nM | 10 to 100 nM | – | – | – |
| CCC(C)C1NCCOc2cccc3c2CC(CC3)CNC(=O)C(Cc2ccccc2)NC(=O)C(C(C)O)N(C)C1=O (centres unmarked) [Compound 1798] | 100 to 500 nM | 1 to 10 nM | – | – | – |
| Cc1ccc2[nH]cc(CC3NC(=O)C(C(C)O)N(C)C(=O)C(C(C)C)NCCOc4ccccc4CCC(C)NC3=O)c2c1 (centres unmarked) [Compound 1802] | 10 to 50 nM | 1 to 10 nM | – | – | – |
| CC(C)C1NCCOc2cccc(F)c2C=CCNC(=O)C(C(C)c2ccccc2)NC(=O)C(C(C)O)N(C)C1=O (centres unmarked) [Compound 1811] | 100 to 500 nM | 10 to 100 nM | – | – | – |
| CCC1CCc2ccc(Cl)cc2OCCNC(C(C)C)C(=O)N(C)C(C(C)O)C(=O)NC(Cc2ccccc2)C(=O)N1 (centres unmarked) [Compound 1813] | 100 to 500 nM | 100 to 500 nM | – | – | – |
| CCC1CCc2ccc(Cl)cc2OCCNC(C(C)C)C(=O)N(C)C(C(C)O)C(=O)NC(Cc2cccc(F)c2)C(=O)N1 (centres unmarked) [Compound 1814] | 100 to 500 nM | 100 to 500 nM | – | – | – |
| CCC1CCc2ccc(F)cc2OCCNC(C(C)C)C(=O)N(C)C(C(C)O)C(=O)NC(Cc2ccco2)C(=O)N1 (centres unmarked) [Compound 1824] | 100 to 500 nM | 10 to 100 nM | – | – | – |
| CCC(C)C1NCCOc2ccccc2C=CCNC(=O)C(Cc2c[nH]c3ccc(F)cc23)NC(=O)C(C(C)O)N(C)C1=O (centres unmarked) [Compound 1827] | 100 to 500 nM | 10 to 100 nM | – | – | – |
| CCC1CCc2ccc(F)cc2OCCNC(CC)C(=O)N(C)C(C(C)O)C(=O)NC(Cc2c[nH]c3ccccc23)C(=O)N1 (centres unmarked) [Compound 1853] | 100 to 500 nM | 10 to 100 nM | – | – | – |
